From patent publication US6964959B2, “Use of a methylol-containing compound to treat tumors” (Carter Wallace, Inc., priority 1999, dated 2005)

Legend:
[1] = test system: MDR-transfected glioblastoma cells; assay: Cytotoxicity in MDR-transfected glioblastoma cells; details: transfected vs untransfected glioblastoma cells
From the text: The neoplastic cell lines used in the survey were standard tumor cell lines, e.g., PA1 human ovarian cell line, SKOV3 human ovarian cell line, HT29 human colon tumor cell line, DU145 human prostate tumor cell line, U251 human glioblastoma cell line, U251-MDR human glioblastoma cell line transfected with DNA encoding MDR, T98G human glioblastoma cell line, SP-1 human leukemia cell line, and Daudi human leukemia cell line.
Glioblastoma cells were transfected with a gene encoding multiple drug resistance (MDR).

[2] = test system: human cancer cell lines; assay: Cytotoxic activity of taurultam in human cancer cell lines; assay type: cell-based
Experimental: The cytotoxic activity of taurultam was evaluated in vitro using the same human cancer cell lines as described above. […] The data also indicate that the cytotoxic effect is directly proportionate to the number of methylol molecules liberated per molecule of methylol-containing compound

COc1cccc2c1C(=O)c1c(O)c3c(c(O)c1C2=O)C[C@@](O)(C(=O)CO)C[C@@H]3O[C@H]1C[C@H](N)[C@H](O)[C@H](C)O1 [adriamycin]
resistance of MDR-transfected cells [1]: 100-1000 times

O=S1(=O)CCNCN1 [taurultam]
induction of apoptotic death ([2]; cancer cells vs normal control cells): induced apoptotic death of cancer cells but not normal control cells | cytotoxic activity relative to the activity observed with taurolidine ([2]; same human cancer cell lines as for taurolidine): approximately 75%
